Molecular target: T1, human recombinant adrenergic α2C receptor (Homo sapiens, UniProt P18825)
T1 construct: expressed in transfected cells; host or cells: insect Sf9 cells
T1 sequence (P18825 1-462): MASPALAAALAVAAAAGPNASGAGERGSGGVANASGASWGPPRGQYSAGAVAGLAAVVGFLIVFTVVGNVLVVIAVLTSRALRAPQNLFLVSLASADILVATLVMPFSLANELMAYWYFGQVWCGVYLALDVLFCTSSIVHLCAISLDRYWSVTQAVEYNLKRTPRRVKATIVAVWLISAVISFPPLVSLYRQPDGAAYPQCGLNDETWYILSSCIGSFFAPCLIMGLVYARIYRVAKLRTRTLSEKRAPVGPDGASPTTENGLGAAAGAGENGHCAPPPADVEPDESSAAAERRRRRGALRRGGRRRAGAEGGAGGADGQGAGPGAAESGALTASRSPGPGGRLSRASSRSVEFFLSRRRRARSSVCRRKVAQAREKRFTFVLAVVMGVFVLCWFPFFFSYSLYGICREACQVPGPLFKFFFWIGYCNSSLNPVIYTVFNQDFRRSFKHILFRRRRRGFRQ
Assay: Adrenergic α2C radioligand binding ([3H]MK-912)
Details: compound at 0.1 μM; read-out: Percentage inhibition of ligand binding, Adrenergic (0.1 μM) α2C
Procedure: To evaluate in radioligand binding assays the activity of compounds of the invention, human recombinant adrenergic α2C receptor expressed in insect Sf9 cells (Uhlen, S. et al, J. Pharmacol. Exp. Ther. 271:1558, 1994) in a modified Tris-HCl buffer (50 mM Tris-HCl, pH 7.4, 12.5 mM MgCl2, 2 mM EDTA) was used. Compounds of the invention were incubated with 1 nM [^3H]MK-912 for 60 min at 25° C. Non-specific binding was estimated in the presence of 10 μM WB-4101. Receptor proteins were filtered and washed, the filters were then counted to determine [^3H]MK-912 specifically bound. Compounds were screened at 1 μM or lower, using 1% DMSO as vehicle. Biochemical assay results are presented as the percent inhibition of specific binding in Table 3.

SMILES	inhibition at 0.1 µM [%]
Cc1cc(C#Cc2ccc(C)nc2)c2c(c1)c1c(n2C)CCN(C)C1 [Compound 12, 2,3,4,5-tetrahydro-2,5,8-trimethyl-6-(2-(6-methylpyridin-3-yl)ethynyl)-1H-pyrido[4,3-b]indole]	3
Cc1cc(CCc2ccc(C)nc2)c2c(c1)c1c(n2C)CCN(C)C1 [Compound 13]	2
C#Cc1cc(C)cc2c3c(n(C)c12)CCN(C)C3 [Compound 10, 6-Ethynyl-2,3,4,5-tetrahydro-2,5,8-trimethyl-1H-pyrido[4,3-b]indole]	36
Cc1cc(-c2ccc(F)cc2)c2c(c1)c1c(n2C)CCN(C)C1 [Compound 7]	8
Cc1ccc(C#Cc2cc(Cl)cc3c4c(n(C)c23)CCN(C)C4)cn1 [Compound 18]	0
Cc1cc(C#Cc2ccncc2)c2c(c1)c1c(n2C)CCN(C)C1 [Compound 17]	3
C/C(=C\c1cc(C)cc2c3c(n(C)c12)CCN(C)C3)c1ccc(C)nc1 [Compound 15]	-14
Cc1cc(/C=C/c2ccc(C)nc2)c2c(c1)c1c(n2C)CCN(C)C1 [Compound 14]	1
Cc1cc(C#Cc2cccs2)c2[nH]c3c(c2c1)CN(C)CC3 [Compound 8]	7
Cc1cc(C#Cc2nccs2)c2[nH]c3c(c2c1)CN(C)CC3 [Compound 16]	5
Cc1cc(-c2ccncc2)c2c(c1)c1c(n2C)CCN(C)C1 [Compound 9]	1
C/C(=C\c1cc(C)cc2c3c(n(C)c12)CCN(C)C3)c1ccncc1 [Compound 11]	12

Reference: US9034865B2, “Pyrido [4,3-B] indole and pyrido [3,4-B] indole derivatives and methods of use” (Medivation Technologies, Inc., priority 2010, dated 2015)
